# Source: patent publication US20260263374A1, “COMPOSITIONS OF NANOPARTICLES FOR TREATMENT OF NEUROPATHIC PAIN” (NANOBIOTIX S.A., priority 2022, published 2026)
# Key:
# Assay type in all cases: in vivo, Sprague-Dawley rats
# [1] = system: STZ-induced mechanical allodynia; experiment: STZ-induced diabetic neuropathic pain study (Example 7): paw withdrawal threshold with von Frey filaments; conditions: 30 mg/kg p.o. 2 hr prior to each von Frey test
# [2] = system: oxaliplatin-induced mechanical allodynia; experiment: CIPN model (Example 5): mechanical allodynia, paw withdrawal threshold with von Frey filaments after oxaliplatin; conditions: rat, oxaliplatin 10 mg/kg i.p.; 30 mg/kg p.o. each day of von Frey testing, tested 2 hr post dose
# Experimental: The aim of this study was to investigate the effect of a single intraplantar treatment with Nanoparticles from Example 1 (NP1B) at the dose of 11 g/L, Nanoparticles from Example 2 (NP2B) at 53 g/L, Nanoparticles from Example 3 (NP20B) at 57 g/L, and Nanoparticles from Example 4 (NP20A) at 59 g/L, each in 20 μL of injection volume, on the mechanical allodynia (as assessed using von Frey) that occurs following systemic administration of oxaliplatin in the rat.
# Experimental subjects: Seventy-two (72) adult male Sprague-Dawley rats were used for this study. […]
# Static mechanical (tactile) allodynia evaluation: Measurement of paw withdrawal threshold (PWT) was achieved using calibrated (force; g) von-Frey monofilaments (Touch-Test Sensory Evaluator; Scientific Marketing Associates) applied to the plantar surface of the hind paw. Withdrawal threshold was determined by increasing and decreasing stimulus intensity and estimated using Dixon's up-down method. […]
# Baseline readings for latency to withdrawal (sec) were assessed on three consecutive days (Day −3, Day −2 and Day −1). […]
# Mechanical allodynia was subsequently re-assessed 2-3 times per week following injection, out to D26 post-oxaliplatin. […]
# [3] = system: oxaliplatin-induced mechanical allodynia; experiment: CIPN model (Example 6): dose effect, paw withdrawal threshold with von Frey filaments, left (treated) vs right (vehicle) paw; conditions: 30 mg/kg p.o. each day of von Frey testing; on any of the test days
# Excerpt: Animals were allowed to recover from transportation for at least one week before commencing experiments.
# Data is presented as mean±SEM.
smiles,measurement,setting,value
CC(C)C[C@H](CN)CC(=O)O [Pregabalin],PWT levels compared to ‘STZ/Vehicle’ group,[1],significantly different from the ‘STZ/Vehicle’ group on all days tested
same,"PWT, allodynic response (positive control)",[2],rescued the allodynic response and recovered the PWT to the healthy baseline levels
same,PWT levels (both paws) compared to ‘Vehicle/Vehicle’ group (not neuropathic),[3],not significantly different from the ‘Vehicle/Vehicle’ group
